{"source": "patent US5798391A", "about": "“Injectable solution of benzalkonium fluoride” (Aromafarm Limited, priority 1994, dated 1998)", "key": {"[1]": {"test_system": "E[…] 1", "format": "cell-based, polio enterovirus 1, SABIN strain", "conditions": "32° C."}, "[2]": {"test_system": "HERPES SIMPLEX VIRUS TYPE 1", "experiment": "virucidal activity of BKF, AFNOR T72-180, molecular screening (Table 4)", "format": "cell-based, Herpes Simplex Virus Type 1 (HSV 1)", "conditions": "32° C."}, "[3]": {"test_system": "guinea pig blood", "experiment": "in vitro haemolysis of total blood, guinea pig"}, "[4]": {"test_system": "activated human PBMC lymphocytes", "experiment": "toxicity of residual BKF (sample REV4) on infectiousness test cells", "format": "cell-based", "conditions": "REV4: BKF 20 μg/ml diluted in NTE buffer and centrifuged"}, "[5]": {"test_system": "human blood", "experiment": "in vitro haemolysis of total blood, human"}, "[6]": {"experiment": "in vitro haemolysis of total blood, human", "conditions": "human, blood"}, "[7]": {"test_system": "parvovirus"}, "[8]": {"test_system": "dogs (beagles)", "experiment": "local and general tolerance of intravenous administration in dogs, 28 days", "conditions": "injected intravenously"}, "[9]": {"test_system": "ADENOVIRUS Type 5", "experiment": "virucidal activity of BKF, AFNOR T72-180, molecular screening (Table 3)", "format": "cell-based", "conditions": "32° C.", "protocol": "We have determined the virucide activity of tetradecyl-dimethyl-benzyl-ammonium fluoride (BKF) vis-a-vis vertebrate viruses in conformance with French Standard AFNOR T72-180, December 1989. This benzalkonium fluoride was diluted in solution in sterile distilled water at the following concentrations: 0.02, 0.01, 0.005% (weight divided by volume).\nadenovirid.ae butted.: adenovirus type 5, cultivated on KB cell,\nThe water, the culture medium and the reagents are those recognised by Standard AFNOR T72-180. The titration of the virus is by reading the cytopathic test, following the method described in Standard AFNOR T72-180. The calculation of the infectious titration is by the FISHER and YATES method with the WYSHAK and DETRE tables. The results are given in number of infectious units per ml, or plaque-forming units per ml (PFU/ml).\nThe virucidal activity was then determined by the technique known as molecular screening, consisting of filtration on sephadex gel LH 20 and using subcytotoxic concentrations of benzalkonium fluoride. The virucidal activity was determined as a function of contact time between the benzalkonium fluoride and the viral strain. […] The virucidal activity of benzalkonium fluoride (BKF) is determined by the minimal concentration and minimal contact time with the virus which provoked a reduction of infectious titration of the viruses by a logarithmic factor of a least 4. […]"}, "[10]": {"test_system": "mice", "experiment": "LD 50, unique administration, Behrens and Karber method, mice", "format": "in vivo, albino mouse", "protocol": "The high toxicity of benzalkonium fluoride in unique administration in mice and guinea pigs was determined by the Behrens and Karber method, by intracardiac, intravenous and intraperitoneal injection. The animals used were young adult albino mice and albino guinea pigs. Ten animals were used for each dose administered, five males and five females. The benzalkonium fluoride was used in a 3 g/l isotonic solution of sterile apyrogenic sodium chloride. We observed the animals for 7 days after unique administration carried out using a sterile needle adapted to a syringe graduated in 1/10 ml to allow the treatment of each animal with an exact dose. The animals were weighed each day during the observation period.\nThe LD 50 (lethal dose 50) was determined."}, "[11]": {"test_system": "dogs (beagles)", "conditions": "dog, in vivo"}, "[12]": {"test_system": "VERO, KB and MCR-5 cells"}, "[13]": {"test_system": "mycobacterium tuberculosis (wild strain)", "experiment": "activity in vitro on mycobacterium tuberculosis, B[…] medium surface impregnation method", "format": "cell-based", "design": "key to culture of Bacterium Tuberculosis: (+++): positive culture; (-): negative culture", "protocol": "We determined the activity in vitro of benzalkonium fluoride on the mycobacterium tuberculosis (wild strain).\nThis experiment was carried out with the B[…] medium surface impregnation method. The quantity of active substance absorbed by the medium is expressed in cm^2.\nThe volume of the appropriate dilution of benzalkonium fluoride was 0.25 ml per tube of medium in order to arrive at concentrations of benzalkonium fluoride of 0.1, 0.2 and 0.3% per cm^2 surface of B[…] medium.\nA control tube, without benzalkonium fluoride, was used for each of the series.\nThree series of tests were carried out with dilutions of 0.1, 0.01 and 0.001 of the mother solution of the Bacterium Tuberculosis strain prepared at 1 mg/ml.\nAll the tests were carried out in double."}, "[14]": {"conditions": "female German Pointer 12 kg, same treatment"}}, "note": "Where two headings read alike, the source gives them in different places."}
{"smiles": "CCCCCCCCCCCCCC[N+](C)(C)Cc1ccccc1.[F-]", "note": "[benzalkonium fluoride, tetradecyl-dimethyl-benzyl-ammonium fluoride]", "values": [{"measurement": "virucidal activity: minimal contact time", "setting": "[1]; 0.01% (m/V)", "value": 30, "unit": "min"}, {"measurement": "Viral Titration", "setting": "[1]; 0.01% (m/V), 30 minutes", "value": 0, "unit": "PFU/ml"}, {"measurement": "Viral Titration", "setting": "[1]; 0.01% (m/V), 60 minutes", "value": 0, "unit": "PFU/ml"}, {"measurement": "Viral Titration", "setting": "[1]; 0.01% (m/V), 120 minutes", "value": 0, "unit": "PFU/ml"}, {"measurement": "Viral Titration", "setting": "[1]; 0.02% (m/V), 120 minutes", "value": 0, "unit": "PFU/ml"}, {"measurement": "virucidal activity: minimal concentration (reduction by logarithmic factor of at least 4)", "setting": "[1]; 30 minutes contact", "value": "0.01 % (m/V)"}, {"measurement": "virucidal activity: minimal contact time", "setting": "[2]; 0.01% (m/V)", "value": 5, "unit": "min"}, {"measurement": "Viral Titration", "setting": "[2]; 0.01% (m/V), 30 minutes", "value": 0, "unit": "PFU/ml"}, {"measurement": "Viral Titration", "setting": "[2]; 0.01% (m/V), 60 minutes", "value": 0, "unit": "PFU/ml"}, {"measurement": "Viral Titration", "setting": "[2]; 0.01% (m/V), 120 minutes", "value": 0, "unit": "PFU/ml"}, {"measurement": "Viral Titration", "setting": "[2]; 0.02% (m/V), 15 minutes", "value": 0, "unit": "PFU/ml"}, {"measurement": "Viral Titration", "setting": "[2]; 0.02% (m/V), 30 minutes", "value": 0, "unit": "PFU/ml"}, {"measurement": "Viral Titration", "setting": "[2]; 0.02% (m/V), 60 minutes", "value": 0, "unit": "PFU/ml"}, {"measurement": "Viral Titration", "setting": "[2]; 0.02% (m/V), 120 minutes", "value": 0, "unit": "PFU/ml"}, {"measurement": "virucidal activity: minimal concentration (reduction by logarithmic factor of at least 4)", "setting": "[2]; 5 minutes contact", "value": "0.01 % (m/V)"}, {"measurement": "haemolysis (degree of red colouring)", "setting": "[3]; 37.5 ppm or mg/l", "value": 0}, {"measurement": "haemolysis (degree of red colouring)", "setting": "[3]; 75 ppm or mg/l", "value": "+"}, {"measurement": "haemolysis (degree of red colouring)", "setting": "[3]; 150 ppm or mg/l", "value": "++++"}, {"measurement": "toxicity for the infectiousness test cells", "setting": "[4]", "value": "not toxic"}, {"measurement": "haemolysis", "setting": "[5]; 37.5 mg/l, man, guinea pig and rabbit blood", "value": "Not having noted h.ae butted.molysis"}, {"measurement": "haemolysis (degree of red colouring)", "setting": "[5]; 20 ppm or mg/l, 6 samples", "value": 0}, {"measurement": "haemolysis (degree of red colouring)", "setting": "[5]; 35 ppm or mg/l, 6 samples", "value": 0}, {"measurement": "haemolysis (degree of red colouring)", "setting": "[5]; 37.5 ppm or mg/l", "value": 0}, {"measurement": "haemolysis (degree of red colouring)", "setting": "[5]; 75 ppm or mg/l", "value": "+"}, {"measurement": "haemolysis (degree of red colouring)", "setting": "[5]; 150 ppm or mg/l", "value": "++"}, {"measurement": "MNTC", "setting": "[6]", "value": "≤ 20", "unit": "µg/mL"}, {"measurement": "tolerance", "setting": "[7]; dog, in vivo", "value": "excellent"}, {"measurement": "normal eating", "setting": "[7]; [14]", "value": 4, "unit": "days"}, {"measurement": "total recovery confirmed", "setting": "[7]; [14]", "value": 18, "unit": "days"}, {"measurement": "total recovery", "setting": "[7]; female German Shepherd 10 kg, 10 ml then 20 ml, associated treatment 8 days", "value": 20, "unit": "days"}, {"measurement": "complete recovery", "setting": "[7]; female Rottweiler 15 kg, two injections of 10 ml, 12 h apart", "value": 18, "unit": "days"}, {"measurement": "recovery, days after start of treatment", "setting": "[7]; male German Shepherd 20 kg, two injections at 12 h interval, 2.1 g/l", "value": 6, "unit": "days"}, {"measurement": "normal eating", "setting": "[7]; male Newfoundland 28 kg, after four days", "value": "eating normally"}, {"measurement": "blood in urine and vomiting", "setting": "[7]; male Newfoundland 28 kg, two injections of 10 ml, end of second day", "value": "the blood had disappeared from the urine and the dog no longer vomited"}, {"measurement": "death", "setting": "[7]; three puppies with violent evolutive gastro-enteritis, two injections at 12 h interval", "value": "Death occurred within two days"}, {"measurement": "toxic effect, overall", "setting": "[8]", "value": "no remarkable toxic effect"}, {"measurement": "virucidal activity: minimal contact time", "setting": "[9]; 0.02% (m/V)", "value": 120, "unit": "min"}, {"measurement": "virucidal activity: minimal concentration (reduction by logarithmic factor of at least 4)", "setting": "[9]; 120 minutes contact", "value": "0.02 % (m/V)"}, {"measurement": "LD 50", "setting": "[10]; female mouse, intraperitoneal", "value": 34.60, "unit": "mg/mL"}, {"measurement": "LD 50", "setting": "[10]; female mouse, intravenous", "value": 36.60, "unit": "mg/mL"}, {"measurement": "acute toxicity, overall", "setting": "[10]; intravenous, intraperitoneal or intracardiac injection, mice and guinea pigs", "value": "sufficiently low toxicity"}, {"measurement": "LD 50", "setting": "[10]; male mouse, intraperitoneal", "value": 33.10, "unit": "mg/mL"}, {"measurement": "LD 50", "setting": "[10]; male mouse, intravenous", "value": 33.24, "unit": "mg/mL"}, {"measurement": "blood in the urine, male", "setting": "[11]", "value": "a high level of blood in the urine"}, {"measurement": "blood in urine from bladder, male", "setting": "[11]", "value": "no trace of blood"}, {"measurement": "blood in urine, male", "setting": "[11]", "value": "absence of blood"}, {"measurement": "glucose in urine, male", "setting": "[11]", "value": "absence of glucose"}, {"measurement": "haemolysis in urine samples, female", "setting": "[11]", "value": "no signs of h.ae butted.molysis"}, {"measurement": "histological examination of the various organs", "setting": "[11]", "value": "no alteration due to treatment"}, {"measurement": "ketonic bodies in urine, male", "setting": "[11]", "value": "traces of ketonic bodies"}, {"measurement": "number of leukocytes", "setting": "[11]", "value": "increased"}, {"measurement": "proteins in urine, male", "setting": "[11]", "value": "traces of proteins"}, {"measurement": "urine sodium and potassium, female", "setting": "[11]", "value": "remained almost stable"}, {"measurement": "urine sodium and potassium, male", "setting": "[11]", "value": "showed variations"}, {"measurement": "toxicity threshold (D.L.0)", "setting": "[12]; after filtration", "value": 0.01, "unit": "%"}, {"measurement": "toxicity threshold (D.L.0)", "setting": "[12]; before filtration", "value": 0.05, "unit": "%"}, {"measurement": "inhibition of the culture", "setting": "[13]; 0.1, 0.2 and 0.3% per cm^2, dilutions 0.1, 0.01 and 0.001, four weeks at 37° C.", "value": "an inhibition of the culture"}, {"measurement": "culture of Bacterium Tuberculosis", "setting": "[13]; BKF 0.1%/cm^2, BK dilution 0.001, in double", "value": "(-)"}, {"measurement": "culture of Bacterium Tuberculosis", "setting": "[13]; BKF 0.1%/cm^2, BK dilution 0.01, in double", "value": "(-)"}, {"measurement": "culture of Bacterium Tuberculosis", "setting": "[13]; BKF 0.1%/cm^2, BK dilution 0.1, in double", "value": "(-)"}, {"measurement": "culture of Bacterium Tuberculosis", "setting": "[13]; BKF 0.2%/cm^2, BK dilution 0.001, in double", "value": "(-)"}, {"measurement": "culture of Bacterium Tuberculosis", "setting": "[13]; BKF 0.2%/cm^2, BK dilution 0.01, in double", "value": "(-)"}, {"measurement": "culture of Bacterium Tuberculosis", "setting": "[13]; BKF 0.2%/cm^2, BK dilution 0.1, in double", "value": "(-)"}, {"measurement": "culture of Bacterium Tuberculosis", "setting": "[13]; BKF 0.3%/cm^2, BK dilution 0.001, in double", "value": "(-)"}, {"measurement": "culture of Bacterium Tuberculosis", "setting": "[13]; BKF 0.3%/cm^2, BK dilution 0.01, in double", "value": "(-)"}, {"measurement": "culture of Bacterium Tuberculosis", "setting": "[13]; BKF 0.3%/cm^2, BK dilution 0.1, in double", "value": "(-)"}]}
